Measured values published in publication PMC4433340 (PLoS Neglected Tropical Diseases, 2015).

Legend:
[1] = system: total E-selectin, ICAM-1 and VCAM-1 protein in T. cruzi-infected endothelial cells; assay: Total ECAM protein by Western blot; assay type: cell-based, human; conditions: 5 μM simvastatin or 20 μM benznidazole for 24 hours before 16 hours infection
Method: (§1) 5x10^5 endothelial cells were rinsed once with PBS and scraped. Proteins were extracted into 100 μL RIPA buffer plus a protease and phosphatase inhibitor cocktail (Radio-Immunoprecipitation Assay; Millipore Corporation, USA) at 4°C. Total protein was quantified with the Lowry assay. Samples in loading buffer (10% SDS, 50% glycerol, 0.5 M Tris, 0.1% bromophenol blue, and 1 M dithiothreitol, pH 6.8) were electrophoretically separated by 10% SDS-PAGE and transferred to a nitrocellulose membrane. Nitrocellulose membranes were incubated with blocking solution (5% w/v nonfat dry milk, 0.1% Tween-20 in Tris-buffered saline) at room temperature for 1 hour. Then, the membranes were incubated at 4°C overnight with 1 mL solution of primary antibodies against E-selectin (1:1000) and α-Tubulin (1:10.000) from Sigma-Aldrich, ICAM-1 (1:2000) and VCAM-1 (1:1000) from Abcam, 7 ml solution of p-IKK (1:1000), IKK (1:1000), p-IκB (1:1000) and IκB (1:1000) from Cell signaling (Cell Signaling Technologies, USA). Bound antibodies were detected with horseradish peroxidase-conjugated secondary antibodies and visualized by Lumminata forte (Millipore). The nitrocellulose was stripped between reprobes using Mild stripping (Millipore) for 10 minutes. Developed films were scanned, and band densitometry was analyzed using ImageJ software (ImageJ 1.47v).

T. cruzi epimastigotes = conditions: at concentrations in the millimolar range; cited from earlier work
[2] = system: 15-epi-lipoxin A4 production by T. cruzi-infected EA.hy926 cells; assay: 15-epi-lipoxin A4 quantification by DSA-TOF MS in culture supernatants; assay type: cell-based, human; conditions: 5 μM simvastatin
Method: (§2) 8x10^5 EA.hy926 cells/well were cultured in 6-well plates (IMDM 10% SFB). […] 15-epi-LXA4 determination was performed by:
(§3) • ELISA assay: the supernatant from the cell cultures was assayed using a 15-epi-LXA4 BioAssay ELISA Kit (USBiological, USA) following manufacturer’s instructions. • AxION DSA—TOF MS determination: To determine 15-epi-lipoxin A4 levels in EAhy926 cell culture supernatants, an AxION Direct Sample Analysis (DSA) that was integrated with an AxION 2 time-of-flight (TOF) mass spectrometer (PerkinElmer, Shelton, CT, USA) was employed. For extraction, all of the samples were loaded onto a solid phase extraction and eluted with 1 mL chloroform three times successively. Then, the samples were transferred into a clean tube, and the chloroform in the samples was evaporated in a water bath. Finally, the samples were resuspended in 100 μL ethanol, and 10 μL were pipetted onto a stainless mesh. For the calibration curve, 15-epi-lipoxin A4 (cat#90415, Cayman Chemical, USA) was diluted in PBS to achieve different final concentrations (see S1 Fig). From each tube, 10 μL was pipetted onto a stainless mesh, and DSA—TOF determination was performed. The AxION DSA conditions were as follows: 5 μA corona current, 250°C heater temperature, 80 psi auxiliary gas (N2) pressure, 4 L/min drying gas (N2) flow, and 25°C drying gas (N2) temperature. […] Mass spectra were acquired with a mass range of 100–1000 m/z and an acquisition rate of 2 spectra/sec. To maintain mass accuracy, […] lock mass ions were used (m/z 119.0400, m/z 556.0000 and m/z 805.9900). All of the samples were analyzed for only 10 sec. The standards used were 15-epi-lipoxin A4 (cat#90415, Cayman Chemical,) and 5(S),6(R)-Lipoxin A4 methyl ester (cat#10033, Cayman Chemical) as an internal standard. These were confirmed in seconds by accurate mass and isotopic distribution of parent and fragment ions using DSA/TOF and AxION software, and compound identification was performed using the standards. All of the samples were analyzed in triplicate.

[3] = system: 15-epi-lipoxin A4 production by EA.hy926 cells; assay: 15-epi-lipoxin A4 determination by ELISA in culture supernatants; assay type: cell-based, human; conditions: ELISA (Fig 7A); for 15-epi-LXA4 production in T. cruzi-infected endothelial cells: EA.hy926 infected 16 hours, drug added afterwards
Method: as §2, §3

[4] = system: NF-κB pathway (p-IKK, p-IκB) in T. cruzi-infected EA.hy926 cells; assay: IKK and IκB phosphorylation by Western blot; assay type: cell-based, human; conditions: 5 μM simvastatin or 20 μM benznidazole, T. cruzi 1 hour
Method: as §1

[5] = system: E-selectin, ICAM-1 and VCAM-1 expression on T. cruzi-infected EA.hy926 and HUVEC cells; assay: Endothelial cell adhesion molecule surface expression by flow cytometry / immunofluorescence; assay type: cell-based, human; conditions: 5 μM simvastatin or 20 μM benznidazole for 24 hours before 16 hours T. cruzi infection (MOI 10); EA.hy926 and HUVEC
Method: Then, cells were infected with trypomastigotes at a MOI of 10 and incubated for 16 hours. Cells were detached with 1X EDTA-PBS at 0.5 mM. The harvested cells were washed with cold PBS and centrifuged at 800 x g for 5 minutes. Then, cells were washed with flow cytometry buffer three times. 100 μL of cell suspensions were incubated for 45 min at 4°C in the dark with mouse monoclonal anti- human E-selectin (5 μL undiluted), ICAM-1(3 μL undiluted), and VCAM-1 (1 μL undiluted) that were conjugated with PE, FITC and APC, respectively (BioLegend, USA). Cell suspensions were analyzed by flow cytometry using a FACSAria-III flow cytometer (BD Biosciences, USA). A homogeneous cell population was selected by size vs. granularity in log scale for these two conditions.
2x10^4 EA.hy926 cells/slide were seeded in Lab-Tek II Chamber Slide^TM (ThermoScientific, USA) and allowed to adhere overnight. […] After 16 hours of infection, cells were fixed in 4% formaldehyde–0.1 M phosphate buffer (pH 7.3) for 10 min. Cells were blocked with 3% bovine serum albumin for 1 hour. Then, cells were incubated with monoclonal antibodies against E-selectin (1:100), VCAM-1 (1:250) and ICAM-1 (1:100) (from Abcam, UK) overnight at 4°C. The samples were washed with PBS and incubated with anti-rabbit IgG that had been conjugated with fluorescein (1:100) from Sigma-Aldrich for 1 h. Finally, nuclei were stained with DAPI for 5 minutes and mounted with Dako Fluorescence Mounting (Dako, USA). The cells were photographed using a Nikon Eclipse 400 fluorescence microscope (Nikon, Japan), and images were analyzed by mean intensity using ImageJ software (ImageJ 1.47v).

| SMILES | Total cell adhesion molecule protein amount [1] | Epimastigote proliferation (T. cruzi epimastigotes) | 15-epi-lipoxin A4 concentration (Mean ± SD) ([2]; 3 hours) [ng/mL] | 15-epi-lipoxin A4 concentration (Mean ± SD) ([2]; 6 hours) [ng/mL] | 15-epi-lipoxin A4 concentration (Mean ± SD) ([2]; 12 hours) [ng/mL] | 15-epi-lipoxin A4 concentration (Mean ± SD) ([2]; 24 hours) [ng/mL] | 15-epi-LXA4 levels with drug alone ([3]; 5 μM simvastatin, EA.hy926 without T. cruzi) | 15-epi-LXA4 production in T. cruzi-infected endothelial cells [3] | Response of the IKK-IκB system (p-IKK, p-IκB) [4] | E-selectin, ICAM-1 and VCAM-1 surface expression [5] |
| --- | --- | --- | --- | --- | --- | --- | --- | --- | --- | --- |
| CCC(C)(C)C(=O)O[C@H]1C[C@@H](C)C=C2C=C[C@H](C)[C@H](CC[C@@H]3C[C@@H](O)CC(=O)O3)[C@H]21 [Simvastatin] | decreased cell adhesion molecule amount | decreased epimastigote proliferation | 1.58 ± 0.21 | 3.58 ± 1.22 | 37.28 ± 11.23 | 326 ± 34.25 | rose slightly | induced 15-epi-LXA4 | significantly decreased the response of the Ikk-IkB system |  |
| O=C(Cn1ccnc1[N+](=O)[O-])NCc1ccccc1 [Benznidazole] | decreased cell adhesion molecule amount |  |  |  |  |  |  | did not induce | significantly decreased the response of the Ikk-IkB system | prevent cell adhesion molecule expression |
